Like-named read-outs stand apart in the source and are kept apart here.
Experiments:
[1] = dogs, 30 mg/kg oral dose, plasma 2 to 9 hours post-dose, cited from earlier work; for Mean AUC (sulfone): sulfone metabolite
[2] = Racemic modafinil:malonic acid co-crystal pharmacokinetic study in dogs (vs micronized pure modafinil); format: in vivo
Experimental: As a reference, micronized modafinil with a median particle size of about 2 micrometers was also administered in the study.

[3] = cited from earlier work
[4] = Dog pharmacokinetic study of a single intravenous dose of R-(−)-modafinil vs racemic modafinil; format: in vivo; conditions: dogs; for AUC(0-inf) / Cmax / Vd / clearance / half-life: dog, plasma, 5 mg/kg IV, Mean
Description: A dog pharmacokinetic study (N=6) of a single intravenous dose of R-(−)-modafinil was completed. The purity of the R-(−)-modafinil in the administered formulation was ca 80 percent. This formulation was compared to a formulation of racemic modafinil, also administered by the intravenous route to the same dogs in a crossover design. Ir. Table VII, “Cmax” is the maximum blood plasma concentration, “AUC (inf)” is the extrapolated area under the curve, “t1/2” is the amount of time for the blood plasma level to decrease to half of the Cmax level beginning at administration, “Vd” is the volume of distribution, and “CL” is the clearance rate of modafinil.

[5] = cited from earlier work; remark: listed apart in the source
[6] = In vitro dissolution in simulated gastric fluid (SGF) and simulated intestinal fluid (SIF); conditions: micronized, blended with lactose, HPMC capsules
Description: Further aqueous solubility can be measured in simulated gastric fluid (SGF) or simulated intestinal fluid (SIF) rather than water.
Both samples were blended with lactose and filled into HPMC capsules.

[7] = Pharmacokinetic study with dogs: modafinil:malonic acid formulated with lactose vs PROVIGIL tablets; format: in vivo
Description: In Table VI, “Cmax” is the maximum blood plasma concentration, “AUC (inf)” is the extrapolated area under the curve, “t1/2” is the amount of time for the blood plasma level to decrease to half of the Cmax level beginning at administration, “Tmax” is the time to maximum blood plasma concentration from administration, “CL” is the clearance rate of modafinil, and “F %” is the percent bioavailability.

[8] = Dynamic vapor sorption isotherm; format: physicochemical; conditions: up to at least 40 percent RH at 26 degrees C.
[9] = Solid-state stability of modafinil:malonic acid co-crystal at various temperatures and relative humidities; format: physicochemical; conditions: for degradation / degradation per day: four week period
Experimental: At 60 degrees C., about 0.14 percent degradation per day was determined based on a simple exponential model. At 80 degrees C., about 8 percent degradation per day was determined.
FIGS. 49 and 50 show the % area impurities as measured via HPLC versus time (weeks) for samples stored at various conditions including: 25 degrees C., 60% RH; 40 degrees C., 75 percent RH; 40 degrees C., ambient RH; 60 degrees C., ambient RH; 80 degrees C., ambient RH; and −20 degrees C.

[10] = second value listed in the cell

Molecule | pKa Values ([5]; first value listed in the cell) | pKa Values [5, 10] | further results
NC(=O)C[S+]([O-])C(c1ccccc1)c1ccccc1 (racemic) [Racemic Modafinil, (±)-2-[(Diphenylmethyl)sulfinyl]acetamide] |  |  | Mean AUC (racemate) [1]: 46760 ± 6950 ng·h/mL; Mean AUC (sulfone) [1]: 35120 ± 6930 ng·h/mL; half-life ([2]; dog, in vivo): 2.1 ± 0.7 h; Cmax ([2]; dog, in vivo, median particle size 2 micrometers (pure modafinil), 16 micrometers (co-crystal)): 11000 ± 5900 ng/mL; Tmax ([2]; dog, in vivo, read-out: Tmax): 1.3 ± 0.6 h; solubility in water [3]: practically insoluble; AUC(0-inf) [4]: 15100 ng·h/mL; Cmax [4]: 8680 ng/mL; Vd [4]: 0.589 L/kg; clearance [4]: 5.68 mL/min/kg; half-life [4]: 1.05 h
Nc1ccc(C(=O)O)cc1 [4-aminobenzoic acid] | 4.7 |  | 
Nc1ccncc1 [4-aminopyridine] | 10 |  | 
CCOc1ccc(NC(N)=O)cc1 [4-ethoxyphenyl urea] | ~7-9 |  | 
Nc1ncnc2nc[nH]c12 [Adenine] | 3.8 |  | 
Oc1ncnc2[nH]ncc12 [Allopurinaol] | 10.2 |  | 
N=C(N)NCCC[C@H](N)C(=O)O [Arginine] | 2.18 | 9.09 | 
NC(=O)C[C@H](N)C(=O)O [Asparagine] | 2.02 | 8.5 | 
CC1(C(=O)O)CCC(C(=O)O)C1(C)C (stereo not drawn) [Camphoric acid] |  | 5.83 | 
N[C@@H](CS)C(=O)O [Cysteine] | 1.71 | 8.33 | pKa Values ([5]; third value listed in the cell): 10.78
CN(C)CC(=O)O [Dimethylglycine] | 2.5 |  | 
NC(=O)C[S@+]([O-])C(c1ccccc1)c1ccccc1 [Example 40-983, S-(+)-2-[(Diphenylmethyl)sulfinyl]acetamide] |  |  | Mean AUC (racemate) [1]: 50940 ± 8770 ng·h/mL; Mean AUC (sulfone) [1]: 83120 ± 21660 ng·h/mL
O=C(O)[C@@H](O)[C@H](O)[C@H](O)[C@@H](O)C(=O)O [Galactaric acid] |  | 3.63 | 
NC1[C@H](O)OC(CO)[C@@H](O)[C@H]1O (stereo partly drawn) [Glucosamine] | 6.91 |  | 
O=C(O)CCCC(=O)O [Glutaric acid] | 2.7 | 4.5 | 
CC[C@H](C)[C@H](N)C(=O)O [Isoleucine] | 2.32 | 9.76 | 
O=C(O)[C@H](O)[C@@H](O)[C@H](O[C@@H]1O[C@H](CO)[C@H](O)[C@H](O)[C@H]1O)[C@H](O)CO [Lactobionic acid] | 3.2 |  | 
CCCCCCCCCCCC(=O)O [Lauric acid] | ~4.5 |  | 

Molecule | pKa Values ([5]; first value listed in the cell) | pKa Values [5, 10] | further results
NC(=O)c1cccnc1 [Nicotinamide] | 3.3 |  | 
O=C(O)c1cc(=O)[nH]c(=O)[nH]1 [Orotic acid] | 5.85 | 8.95 | 
CCCCCCCCCCCCCCCC(=O)O [Palmitic acid] | 4.9 |  | 
N[C@@H](Cc1ccccc1)C(=O)O [Phenylalanine] | ~2 | ~9 | 
Cc1ncc(CO)c(CN)c1O [Pyridoxamine] | ~9 |  | 
Cc1ncc(CO)c(CO)c1O [Pyridoxine] | ~9 |  | 
NC(=O)C[S@@+]([O-])C(c1ccccc1)c1ccccc1 [R-(−)-modafinil, R-(−)-2-[(Diphenylmethyl)sulfinyl]acetamide] |  |  | Mean AUC (racemate) [1]: 97220 ± 12580 ng·h/mL; Mean AUC (sulfone) [1]: 8690 ± 1220 ng·h/mL; AUC(0-inf) [4]: 15900 ng·h/mL; Cmax [4]: 7810 ng/mL; Vd [4]: 0.647 L/kg; clearance [4]: 5.67 mL/min/kg; half-life [4]: 1.53 h; difference in pharmacokinetics vs racemic modafinil ([4]; intravenous administration): no significant difference
Nc1ccc(C(=O)O)c(O)c1 [Salicylic acid, 4-amino] | 3.25 | 10 | pKa Values ([5]; third value listed in the cell): 3.5
C[C@@H](O)[C@H](N)C(=O)O [Threonine] | 2.15 | 9.12 | 
N[C@@H](Cc1c[nH]c2ccccc12)C(=O)O [Tryptophan] |  | 9.39 | 
CC(C)[C@H](N)C(=O)O [Valine] | ~4.5 | ~9 | 
Cc1cc(N)c2ccccc2c1O [Vitamin K5] | ~9 |  | melting point: 280 to 282 °C (dec.)
OC[C@@H](O)[C@H](O)[C@@H](O)CO [Xylitol] | ~9 |  | 
Acetohydroxamic acid | 8.7 |  | 
Imidazole | 6.92 |  | 
Racemic Modafinil:Malonic Acid Co-crystal [Modafinil: malonic acid co-crystal] |  |  | release of modafinil into solution vs free form of modafinil ([6]; SGF): more quickly; release of modafinil into solution vs free form of modafinil ([6]; SIF): more quickly; CL ([7]; 200 mg modafinil, Mean): 368.33; Tmax ([7]; 200 mg modafinil, Mean): 2 h; AUC (inf) ([7]; 200 mg modafinil, Mean, extrapolated, in ng·h/mL): 50545.00; Cmax ([7]; 200 mg modafinil, Mean, in ng/mL): 11246.67; F % ([7]; 200 mg modafinil, Mean, percent bioavailability): 81.57%; Cmax compared with PROVIGIL tablets ([7]; FIG. 56): increased; AUC higher than that of the pure modafinil [2]: 40 to 60%; Tmax [2]: 1.7 ± 0.6 h; water adsorption (DVS) [8]: no appreciable water adsorption; degradation ([9]; 20 degrees C.): No degradation; degradation ([9]; 40 degrees C.): No degradation; degradation per day ([9]; 60 degrees C., simple exponential model): about 0.14 percent degradation per day; degradation per day ([9]; 80 degrees C.): about 8 percent degradation per day; stability on storage (% area impurities via HPLC) ([9]; stored at or below 40 degrees C. for at least 26 weeks): stable
Urea | ~8 |  | 

— patent US7566805B2, “Modafinil compositions” (priority 2003, dated 2009)
